Assay results from US20120165339A1, “CYCLOPROPANE DERIVATIVES” (EISAI R&D MANAGEMENT CO., LTD., priority 2010, published 2012).
Like-named read-outs stand apart in the source and are kept apart here.

Legend:
OX1 [1] = biological target: T1, OX1 (Homo sapiens, UniProt O43613); test: Orexin-receptor binding ability, [125I]-OX-A, CHO cell membranes expressing OX1; set-up: expressed in transfected cells; host or cells: CHO cells (membrane preparation)
T1 sequence (O43613 1-425): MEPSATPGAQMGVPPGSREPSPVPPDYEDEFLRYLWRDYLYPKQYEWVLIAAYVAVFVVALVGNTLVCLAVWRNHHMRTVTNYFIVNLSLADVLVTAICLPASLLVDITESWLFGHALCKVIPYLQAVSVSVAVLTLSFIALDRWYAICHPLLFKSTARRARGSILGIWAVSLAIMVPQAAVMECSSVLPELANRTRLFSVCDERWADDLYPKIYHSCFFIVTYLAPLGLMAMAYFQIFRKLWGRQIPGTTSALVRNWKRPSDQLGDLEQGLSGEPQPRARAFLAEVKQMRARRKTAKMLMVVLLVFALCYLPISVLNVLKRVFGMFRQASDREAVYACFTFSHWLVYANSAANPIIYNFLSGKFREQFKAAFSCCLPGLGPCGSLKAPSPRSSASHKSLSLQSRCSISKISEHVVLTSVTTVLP
Method: (§1) The assay was carried out using a 96-well Wheat Germ Agglutinin Flash Plate (PerkinElmer). The volume in a single assay well was 100 ul, and the composition of the reaction solution was as follows:
(§2) 25 mM HEPES (pH 7.5), 1 mM CaCl2, 4.5 mM MgCl2, 0.5% BSA (bovine serum albumin), 0.1% sodium azide, 0.05% Tween-20, and 0.2% DMSO.
Cell membranes were prepared from recombinant CHO cells that expressed OX2 or OX1. The cell membranes were used in an amount of 5 μg protein/assay. […] Finally, the radioactivity of each well was measured using a scintillation counter (TopCount, PerkinElmer). The obtained results are shown in terms of IC50 values (nM) in the following table.

OX1 [2] = biological target: T1, OX1; test: Antagonism PLAP reporter assay, HEK-293 cells expressing human OX1; format: cell-based; set-up: expressed in transfected cells; host or cells: HEK-293 cell line, expression vector pBabeCLIH; conditions: HEK-293, 1 nM human OX-A; IC50 converted to Ki by Cheng-Prusoff equation
Method: (§3) The antagonistic function of the compound of the present invention to prevent the activation of OX2 and OX1 by orexin-A (OX-A), which is a natural peptide agonist, was measured using a cell-based reporter assay. A HEK-293 cell line expressing genetically recombinant human OX2 (accession No. NM_001526.3) or a HEK-293 cell line expressing genetically recombinant human OX1 (accession No. NM_001525.2), which had pBabeCLIH as expression vector, was used. The cells were plated at a density of 10,000 cells/well onto a non-coated 96-well plate in Dulbecco's modified Eagle medium (Sigma Cat No. D6046: 10% v/v heat-inactivated fetal bovine serum was contained). The cells were cultured at 37° C. overnight, so that they could adhere to the plate. On the following day, cells were incubated with a compound of the present invention dissolved in Dulbecco's modified Eagle medium (Sigma Cat No. A8806: 0.1% w/v bovine serum albumin was contained), and added to the cell plate to reach a final concentration of 0.1% dimethyl sulfoxide.
(§4) The thus obtained mixture was incubated at room temperature for 1 hour. Thereafter, human OX-A and forskolin were dissolved in the same medium as described above, which contained fetal bovine serum albumin, and the medium was then added to the cells, resulting in a final concentration of 300 nM forskolin. Subsequently, the cells were cultured at 37° C. for approximately 18 to 24 hours. During the culture, as a result of activation of the orexin receptor and subsequent dose-dependent increase in intracellular calcium concentration, a reporter enzyme, placental alkaline phosphatase (PLAP), was expressed under the control of a CRE x4+VIP promoter in a pBabeCLcre4vPdNN vector and secreted into the culture medium supernatant. On the following day, reporter enzyme activity was detected by mixing 5 ul of the culture medium supernatant with 20 ul of detection buffer (containing 1.34 g/L sodium bicarbonate, 1.27 g/L sodium carbonate and 0.2 g/L magnesium sulfate heptahydrate in water) and 25 ul of Lumi-Phos530 reagent (Wako Pure Chemical Industries Ltd.), followed by incubating the obtained mixture light-protected at room temperature for 2 hours, before performing luminescence measurement (ARVO Reader, PerkinElmer). The Kd value of human OX-A with respect to each receptor was measured by titration from 0 to 300 nM. Then, the IC50 value of the compound of the present invention with respect to the activity of 1 nM human OX-A was converted into a Ki value (nM) using the Cheng-Prusoff equation.

OX2 [3] = biological target: T2, OX2 (Homo sapiens, UniProt O43614); test: Orexin-receptor binding ability, [125I]-OX-A, CHO cell membranes expressing OX2; set-up: expressed in transfected cells; host or cells: CHO cells (membrane preparation)
T2 sequence (O43614 1-444): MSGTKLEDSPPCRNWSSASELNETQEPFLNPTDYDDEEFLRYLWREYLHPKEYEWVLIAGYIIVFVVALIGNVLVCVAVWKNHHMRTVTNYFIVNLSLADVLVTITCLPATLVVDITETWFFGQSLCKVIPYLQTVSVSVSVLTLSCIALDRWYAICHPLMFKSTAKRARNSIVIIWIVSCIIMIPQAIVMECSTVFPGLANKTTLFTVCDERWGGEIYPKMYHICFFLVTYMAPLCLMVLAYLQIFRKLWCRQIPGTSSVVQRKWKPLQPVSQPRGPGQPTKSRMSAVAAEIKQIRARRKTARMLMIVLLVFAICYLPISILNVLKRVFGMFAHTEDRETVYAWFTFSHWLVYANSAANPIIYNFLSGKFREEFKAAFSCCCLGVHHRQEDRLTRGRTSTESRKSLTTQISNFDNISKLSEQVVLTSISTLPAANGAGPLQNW
Method: as §1, §2
Cell membranes were prepared from recombinant CHO cells that expressed OX2 or OX1. The cell membranes were used in an amount of 5 μg protein/assay. Test compound in various concentrations, and 0.2 nM [^125I]-OX-A as tracer were added to the cell membranes, and then allowed to react at room temperature for 30 minutes. After completion of the reaction, the reaction solution as a whole was discarded, and the wells were then washed once with 200 ul of wash buffer (25 mM HEPES (pH 7.5), 1 mM CaCl2, 5 mM MgCl2, 0.5% BSA, 0.1% sodium azide, 0.05% Tween-20, and 525 mM sodium chloride). Finally, the radioactivity of each well was measured using a scintillation counter (TopCount, PerkinElmer). The obtained results are shown in terms of IC50 values (nM) in the following table.

OX2 [4] = biological target: T2, OX2; test: Antagonism PLAP reporter assay, HEK-293 cells expressing human OX2; format: cell-based; set-up: expressed in transfected cells; host or cells: HEK-293 cell line, expression vector pBabeCLIH; conditions: HEK-293, 1 nM human OX-A; IC50 converted to Ki by Cheng-Prusoff equation
Method: as §3, §4

[5] = membranes of recombinant CHO cells, 0.2 nM [125I]-OX-A tracer, read-out: OX1 (IC50)
[6] = membranes of recombinant CHO cells, 0.2 nM [125I]-OX-A tracer, read-out: OX2 (IC50)

IC50 (OX1 [1]; [5]) [nM] | Ki (OX1 [2]) [nM] | IC50 (OX2 [3]; [6]) [nM] | Ki (OX2 [4]) [nM] | SMILES | IC50 (OX1 [1]) [nM] | IC50 (OX2 [3]) [nM]
1050 | 752 | 36 | 51.5 | COc1ccc(OCC2(c3ccccc3)CC2C(=O)Nc2cc(C)ns2)cc1OC (centres unmarked) [Example 40, N-(3-methylisothiazol-5-yl)-2-[(3,4-dimethoxyphenyl)oxymethyl]-2-phenylcyclopropanecarboxamide] | – | –
105 | 186 | 35 | 23.7 | COc1ccc(OCC2(c3ccccc3)CC2C(=O)Nc2cc(C#N)ccn2)cc1OC (centres unmarked) [Example 18, N-(4-cyanopyridin-2-yl)-2-[(3,4-dimethoxyphenyl)oxymethyl]-2-phenylcyclopropanecarboxamide] | – | –
7 | 395 | 7 | 54 | COc1ccc(OCC2(c3ccccc3)CC2C(=O)Nc2ccccc2)cc1OC (centres unmarked) [Example 1] | – | –
477 | > 816 | 26 | 30.8 | CCn1nc(C)c(Cl)c1OCC1(c2ccccc2)CC1C(=O)Nc1ccc(Cl)cn1 (centres unmarked) [Example 75] | – | –
868 | > 467 | 49 | 210 | CCc1nc(Cl)cn1CCC1(c2ccccc2)CC1C(=O)Nc1ccc(C#N)cn1 (centres unmarked) [Example 114] | – | –
56 | 68.6 | 3 | 4.2 | COc1ccc(OCC2(c3ccccc3)CC2C(=O)Nc2ccc(F)cn2)cc1OC (centres unmarked) [Example 10, N-(5-fluoropyridin-2-yl)-2-[(3,4-dimethoxyphenyl)oxymethyl]-2-phenylcyclopropanecarboxamide] | – | –
467 | > 467 | 45 | 20.9 | CCn1nc(C)cc1OCC1(c2ccccc2)CC1C(=O)Nc1ccc(F)cn1 (centres unmarked) [Example 58] | – | –
403 | 593 | 18 | 14 | COc1ccc(OCC2(c3ccccc3)CC2C(=O)Nc2cccc(C)n2)cc1OC (centres unmarked) [Example 37, N-(6-methylpyridin-2-yl)-2-[(3,4-dimethoxyphenyl)oxymethyl]-2-phenylcyclopropanecarboxamide] | – | –
38 | 73.8 | 25 | 11 | COc1ccc(OCC2(c3ccccc3)CC2C(=O)Nc2cc(Cl)ccn2)cc1OC (centres unmarked) [Example 28, N-(4-chloropyridin-2-yl)-2-[(3,4-dimethoxyphenyl)oxymethyl]-2-phenylcyclopropanecarboxamide] | – | –
805 | > 816 | 48 | 83.5 | COc1ccc(OCC2(c3ccccc3)CC2C(=O)Nc2cncc(F)c2)cc1OC (centres unmarked) [Example 24, N-(5-fluoropyridin-3-yl)-2-[(3,4-dimethoxyphenyl)oxymethyl]-2-phenylcyclopropanecarboxamide] | – | –
1900 | > 816 | 43 | 55.9 | COc1ccc(OCC2(c3ccccc3)CC2C(=O)Nc2nc(C)ns2)cc1OC (centres unmarked) [Example 7, N-(3-methyl-1,2,4-thiadiazol-5-yl)-2-[(3,4-dimethoxyphenyl)oxymethyl]-2-phenylcyclopropanecarboxamide] | – | –
61 | 37.5 | 3 | 0.8 | CCn1cc(OCC2(c3ccccc3)CC2C(=O)Nc2ccc(Cl)cn2)ccc1=O (centres unmarked) [Example 54, N-(5-chloropyridin-2-yl)-2-[(1-ethyl-6-oxo-1,6-dihydropyridin-3-yl)oxymethyl]-2-phenylcyclopropanecarboxamide] | – | –
410 | – | 27 | – | Cc1nn(C)c(=O)cc1OC[C@@]1(c2ccccc2)C[C@H]1C(=O)Nc1ccc(F)cc1 [Example 93, (1R,2S)-2-[(1,3-dimethyl-6-oxo-1,6-dihydropyridazin-4-yl)oxymethyl]-N-(4-fluorophenyl)-2-phenylcyclopropanecarboxamide] | – | –
> 200 | – | 93 | – | CCn1cc(OC[C@@]2(c3cccc(F)c3)C[C@H]2C(=O)Nc2ccnc(F)c2)c(C)n1 [Example 91] | – | –
74 | – | 21 | – | Cc1cnc(OC[C@@]2(c3ccccc3)C[C@H]2C(=O)Nc2ccc(C#N)cn2)c(C)n1 [Example 66] | – | –
101 | – | 6 | – | Cc1cc(NC(=O)[C@@H]2C[C@@]2(CCn2nc(C(F)F)nc2C)c2ccccc2)ncc1F [Example 108, (1R,2S)-2-[2-(3-difluoromethyl-5-methyl-1H-1,2,4-triazol-1-yl)ethyl]-N-(5-fluoro-4-methylpyridin-2-yl)-2-phenylcyclopropanecarboxamide] | – | –

SMILES | IC50 (OX1 [1]; [5]) [nM] | Ki (OX1 [2]) [nM] | IC50 (OX2 [3]; [6]) [nM] | Ki (OX2 [4]) [nM] | IC50 (OX1 [1]) [nM] | IC50 (OX2 [3]) [nM]
COc1ccc(OCC2(c3ccccc3)CC2C(=O)Nc2ccc(F)nc2)cc1OC (centres unmarked) [Example 26] | – | 70 | – | 12.8 | 27 | 43
COc1ccc(S(=O)(=O)CC2(c3ccccc3)CC2C(=O)Nc2ccc(Cl)cn2)cc1OC (centres unmarked) [Example 134, N-(5-chloropyridin-2-yl)-2-[(3,4-dimethoxyphenyl)sulfonylmethyl]-2-phenylcyclopropanecarboxamide] | 261 | > 467 | – | 268 | – | 79
CCn1cc(OC[C@@]2(c3ccccc3)C[C@H]2C(=O)Nc2ccc(F)cn2)ccc1=O (racemic) [Example 56] | 160 | 158 | – | 9.1 | – | 14
